Test results from patent US20230203043A1, “NOVEL IMIDAZOPYRAZINE DERIVATIVES” (Hoffmann-La Roche Inc., priority 2020, published 2023).
Counter-ions that a name gives are not always drawn.

The compounds below were run on Acinetobacter baumannii ATCC17961 (assay: Antimicrobial susceptibility testing: 90% growth inhibitory concentration (IC90) determination in Iso-Sensitest broth, OD600 growth). Conditions: Acinetobacter baumannii, ATCC17961, 16 h, read-out: A. baumannii ATCC 17961 IC90 (uM), strain ATCC 17961, OD600 growth over 16 h.
Assay type: cell-based
Method in brief: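 OD600 read every 20 min for 16 h at 35±2° C; inhibition taken in log phase to derive IC90. Twofold, 10-point dilutions (e.g. 50–0.097 μM final), inoculum ~5×10^(5) CFU/ml.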

| SMILES | IC90 |
| --- | --- |
| Cc1ccc(Cn2cc(-c3cnc4c(Nc5ccc(C(=O)N6CCNCC6)c(Cl)c5)nccn34)c(C(F)(F)F)n2)nn1 [Example 163, [2-chloro-4-[[3-[1-[(6-methylpyridazin-3-yl)methyl]-3-(trifluoromethyl)pyrazol-4-yl]imidazo[1,2-a]pyrazin-8-yl]amino]phenyl]-piperazin-1-ylmethanone formate] | 1.27 µM |
| CN(C)CCNC(=O)CNC(=O)c1ccc(Nc2nccn3c(-c4c[nH]nc4C(F)(F)F)cnc23)cc1Cl [Example 165, 2-chloro-N-[2-[2-(dimethylamino)ethylamino]-2-oxoethyl]-4-[[3-[3-(trifluoromethyl)-1H-pyrazol-4-yl]imidazo[1,2-a]pyrazin-8-yl]amino]benzamide formate] | 2.52 µM |
| O=C(c1ccc(Nc2nccn3c(-c4cn(Cc5ncccn5)nc4C(F)(F)F)cnc23)cc1Cl)N1CCNCC1 [Example 169, [2-chloro-4-[[3-[1-(pyrimidin-2-ylmethyl)-3-(trifluoromethyl)pyrazol-4-yl]imidazo[1,2-a]pyrazin-8-yl]amino]phenyl]-piperazin-1-ylmethanone formate] | 0.392 µM |
| N#CCn1cc(-c2cnc3c(Nc4ccc(C(=O)N5CCN(C(=O)N6CC[C@H](N)C6)CC5)c(Cl)c4)nccn23)c(C(F)(F)F)n1 [Example 180, 2-[4-[8-[4-[4-[(3S)-3-aminopyrrolidine-1-carbonyl]piperazine-1-carbonyl]-3-chloroanilino]imidazo[1,2-a]pyrazin-3-yl]-3-(trifluoromethyl)pyrazol-1-yl]acetonitrile formate] | 0.182 µM |
| Cn1nccc1Cn1cc(-c2cnc3c(Nc4ccc(C(=O)N5CCNCC5)c(Cl)c4)nccn23)c(C(F)(F)F)n1 [Example 181, [2-chloro-4-[[3-[1-[(2-methylpyrazol-3-yl)methyl]-3-(trifluoromethyl)pyrazol-4-yl]imidazo[1,2-a]pyrazin-8-yl]amino]phenyl]-piperazin-1-ylmethanone formate] | 0.293 µM |
| O=C(c1ccc(Nc2nccn3c(-c4cn(Cc5cncnc5)nc4C(F)(F)F)cnc23)cc1Cl)N1CCNCC1 [Example 182, [2-chloro-4-[[3-[1-(pyrimidin-5-ylmethyl)-3-(trifluoromethyl)pyrazol-4-yl]imidazo[1,2-a]pyrazin-8-yl]amino]phenyl]-piperazin-1-ylmethanone formate] | 0.368 µM |
| Cn1ccc(Cn2cc(-c3cnc4c(Nc5ccc(C(=O)N6CCNCC6)c(Cl)c5)nccn34)c(C(F)(F)F)n2)n1 [Example 183, [2-chloro-4-[[3-[1-[(1-methylpyrazol-3-yl)methyl]-3-(trifluoromethyl)pyrazol-4-yl]imidazo[1,2-a]pyrazin-8-yl]amino]phenyl]-piperazin-1-ylmethanone formate] | 0.372 µM |
| Cc1cc(Cn2cc(-c3cnc4c(Nc5ccc(C(=O)N6CCNCC6)c(Cl)c5)nccn34)c(C(F)(F)F)n2)nn1C [Example 185, [2-chloro-4-[[3-[1-[(1,5-dimethylpyrazol-3-yl)methyl]-3-(trifluoromethyl)pyrazol-4-yl]imidazo[1,2-a]pyrazin-8-yl]amino]phenyl]-piperazin-1-ylmethanone formate] | 0.65 µM |

Same assay, conditions: Acinetobacter baumannii, ATCC17961, 16 h, strain ATCC 17961, OD600 growth over 16 h, read-out: A. baumannii ATCC 17961 IC90

| SMILES | IC90 |
| --- | --- |
| N[C@H]1CCN(C(=O)CNC(=O)c2ccc(Nc3nccn4c(-c5c[nH]nc5C(F)(F)F)cnc34)cc2Cl)C1 [Example 164, N-[2-[(3S)-3-aminopyrrolidin-1-yl]-2-oxoethyl]-2-chloro-4-[[3-[3-(trifluoromethyl)-1H-pyrazol-4-yl]imidazo[1,2-a]pyrazin-8-yl]amino]benzamide] | 1.93 µM |
| NCCNC(=O)CNC(=O)c1ccc(Nc2nccn3c(-c4c[nH]nc4C(F)(F)F)cnc23)cc1Cl [Example 166, N-[2-(2-aminoethylamino)-2-oxoethyl]-2-chloro-4-[[3-[3-(trifluoromethyl)-1H-pyrazol-4-yl]imidazo[1,2-a]pyrazin-8-yl]amino]benzamide] | 4.48 µM |
| O=C(NC1CN(C(=O)c2ccc(Nc3nccn4c(-c5c[nH]nc5C(F)(F)F)cnc34)cc2Cl)C1)N[C@@H]1CCNC1 [Example 168, 1-[1-[2-chloro-4-[[3-[3-(trifluoromethyl)-1H-pyrazol-4-yl]imidazo[1,2-a]pyrazin-8-yl]amino]benzoyl]azetidin-3-yl]-3-[(3R)-pyrrolidin-3-yl]urea] | 0.369 µM |
| N#CCn1cc(-c2cnc3c(Nc4ccc(C(=O)N5CC(NC(=O)C6CCNCC6)C5)c(Cl)c4)nccn23)c(C(F)(F)F)n1 [Example 170, N-[1-[2-chloro-4-[[3-[1-(cyanomethyl)-3-(trifluoromethyl)pyrazol-4-yl]imidazo[1,2-a]pyrazin-8-yl]amino]benzoyl]azetidin-3-yl]piperidine-4-carboxamide] | 0.475 µM |
| N#CCn1cc(-c2cnc3c(Nc4ccc(C(=O)N5CC(NC(=O)N[C@@H]6CCNC6)C5)c(Cl)c4)nccn23)c(C(F)(F)F)n1 [Example 171, 1-[1-[2-chloro-4-[[3-[1-(cyanomethyl)-3-(trifluoromethyl)pyrazol-4-yl]imidazo[1,2-a]pyrazin-8-yl]amino]benzoyl]azetidin-3-yl]-3-[(3R)-pyrrolidin-3-yl]urea] | 0.509 µM |
| N#CCn1cc(-c2cnc3c(Nc4ccc(C(=O)N5CC(NC(=O)N[C@H]6CCNC6)C5)c(Cl)c4)nccn23)c(C(F)(F)F)n1 [Example 172, 1-[1-[2-chloro-4-[[3-[1-(cyanomethyl)-3-(trifluoromethyl)pyrazol-4-yl]imidazo[1,2-a]pyrazin-8-yl]amino]benzoyl]azetidin-3-yl]-3-[(3S)-pyrrolidin-3-yl]urea] | 0.832 µM |
| N#CCn1cc(-c2cnc3c(Nc4ccc(C(=O)N5CC(NC(=O)[C@@H]6C[C@@H](O)CN6)C5)c(Cl)c4)nccn23)c(C(F)(F)F)n1 [Example 173, (2S,4R)-N-[1-[2-chloro-4-[[3-[1-(cyanomethyl)-3-(trifluoromethyl)pyrazol-4-yl]imidazo[1,2-a]pyrazin-8-yl]amino]benzoyl]azetidin-3-yl]-4-hydroxypyrrolidine-2-carboxamide] | 1.11 µM |
| C#CCn1cc(-c2cnc3c(Nc4ccc(C(=O)NCCOCCN)c(CC)c4)nccn23)c(C(F)(F)F)n1 [Example 174, N-[2-(2-aminoethoxy)ethyl]-2-ethyl-4-[[3-[1-prop-2-ynyl-3-(trifluoromethyl)pyrazol-4-yl]imidazo[1,2-a]pyrazin-8-yl]amino]benzamide] | 0.081 µM |
| O=C(NC1CN(C(=O)c2ccc(Nc3nccn4c(-c5c[nH]nc5C(F)(F)F)cnc34)cc2Cl)C1)[C@@H]1C[C@@H](O)CN1 [Example 175, (2S,4R)-N-[1-[2-chloro-4-[[3-[3-(trifluoromethyl)-1H-pyrazol-4-yl]imidazo[1,2-a]pyrazin-8-yl]amino]benzoyl]azetidin-3-yl]-4-hydroxypyrrolidine-2-carboxamide] | 0.357 µM |
| CCc1cc(Nc2nccn3c(-c4c[nH]nc4C(F)(F)F)cnc23)ccc1C(=O)NCCOCC(C)(C)N [Example 176, N-[2-(2-amino-2-methylpropoxy)ethyl]-2-ethyl-4-[[3-[3-(trifluoromethyl)-1H-pyrazol-4-yl]imidazo[1,2-a]pyrazin-8-yl]amino]benzamide hydrochloride] | 0.409 µM |
| O=C(c1ccc(Nc2nccn3c(-c4cn(Cc5cc[nH]n5)nc4C(F)(F)F)cnc23)cc1Cl)N1CCNCC1 [Example 177, [2-chloro-4-[[3-[1-(1H-pyrazol-3-ylmethyl)-3-(trifluoromethyl)pyrazol-4-yl]imidazo[1,2-a]pyrazin-8-yl]amino]phenyl]-piperazin-1-ylmethanone] | 0.11 µM |
| C#CCNCCCNC(=O)c1ccc(Nc2nccn3c(-c4c[nH]nc4C(F)(F)F)cnc23)cc1CC [Example 184, 2-ethyl-N-[3-(prop-2-ynylamino)propyl]-4-[[3-[3-(trifluoromethyl)-1H-pyrazol-4-yl]imidazo[1,2-a]pyrazin-8-yl]amino]benzamide] | 0.4 µM |
| N#CCn1cc(-c2cnc3c(Nc4ccc(C(=O)N5CCN(C(=O)[C@H]6CCCN6)CC5)c(Cl)c4)nccn23)c(C(F)(F)F)n1 [Example 186, 2-[4-[8-[3-chloro-4-[4-[(2R)-pyrrolidine-2-carbonyl]piperazine-1-carbonyl]anilino]imidazo[1,2-a]pyrazin-3-yl]-3-(trifluoromethyl)pyrazol-1-yl]acetonitrile] | 0.206 µM |
| C[C@H](N)C(=O)N1CCN(C(=O)c2ccc(Nc3nccn4c(-c5cn(CC#N)nc5C(F)(F)F)cnc34)cc2Cl)CC1 [Example 187, 2-[4-[8-[4-[4-[(2S)-2-aminopropanoyl]piperazine-1-carbonyl]-3-chloroanilino]imidazo[1,2-a]pyrazin-3-yl]-3-(trifluoromethyl)pyrazol-1-yl]acetonitrile] | 0.159 µM |

Same assay, conditions: strain ATCC 17961, OD600 growth over 16 h, read-out: A. baumannii ATCC 17961 IC90

| SMILES | IC90 |
| --- | --- |
| NC1CN(C(=O)c2ccc(Nc3nccn4c(-c5c[nH]nc5C(F)(F)F)cnc34)cc2Cl)C1 [Example 167] | 0.485 µM |
| N#CCn1cc(-c2cnc3c(Nc4ccc(C(=O)N5CCN(C(=O)N6CCC(N)CC6)CC5)c(Cl)c4)nccn23)c(C(F)(F)F)n1 [Example 178, 2-[4-[8-4-[4-(4-aminopiperidine-1-carbonyl)piperazine-1-carbonyl]-3-chloroanilino]imidazo[1,2-a]pyrazin-3-yl]-3-(trifluoromethyl) pyrazol-1-yl]acetonitrile formate] | 0.161 µM |
| N#CCn1cc(-c2cnc3c(Nc4ccc(C(=O)N5CCN(C(=O)N6CC[C@@H](N)C6)CC5)c(Cl)c4)nccn23)c(C(F)(F)F)n1 [Example 179, 2-[4-[8-4-[4-[(3R)-3-aminopyrrolidine-1-carbonyl]piperazine-1-carbonyl]-3-chloroanilino]imidazo[1,2-a]pyrazin-3-yl]-3-(trifluoromethyl) pyrazol-1-yl]acetonitrile formate] | 0.181 µM |
